From PubChem BioAssay AID1259411 (Chemical Carcinogenesis Research Information System (CCRIS), 2018) come the findings set out here.

The series relates to rodent carcinogenicity bioassays, tumor incidence. In words: CCRIS carcinogenicity studies. Summed up:
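Archive of carcinogenicity, mutagenicity, tumor promotion and tumor inhibition results drawn from journals, NCI reports and other sources, expert-reviewed; covers 1985-2011 and is no longer updated.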

Each structure is given as a SMILES string. The source made the active and inactive calls. The rule behind the calls is not given here.

On to `CC(C)N1C(=O)c2ccccc2NS1(=O)=O`, for which the carcinogen call by setting is: (Species: Mouse, Strain/Sex: B6C3F1/Female (70/sex/group), Route: Oral, Dose: 0, 100, 400, 2000 ppm in diet for 2 yr, Dose: 0, 100, 400, 2000 ppm in diet for 2 yr) “inactive; negative; purity 93.3%”; (Species: Mouse, Strain/Sex: B6C3F1/Male (70/sex/group), Route: Oral, Dose: 0, 100, 400, 2000 ppm in diet for 2 yr, Dose: 0, 100, 400, 2000 ppm in diet for 2 yr, Tumor Site: Type of Lesion: Liver: Combined hepatocellular adenoma and carcinoma (13/49 in controls and 22/49 at highest dose)) “active; positive; purity 93.3%”; (Species: Rat, Strain/Sex: Fischer 344/DU CRJ/Female (70/sex/group), Route: Oral, Dose: 0, 200, 800, 4000 ppm in diet for 2 yr, Dose: 0, 200, 800, 4000 ppm in diet for 2 yr) “inactive; negative; purity 93.3%”; (Species: Rat, Strain/Sex: Fischer 344/DU CRJ/Male (70/sex/group), Route: Oral, Dose: 0, 200, 800, 4000 ppm in diet for 2 yr, Dose: 0, 200, 800, 4000 ppm in diet for 2 yr) “inactive; negative; purity 93.3%”.

For the compound `COc1ccc([C@H]2O[C@H]2C)cc1`, the carcinogen call was “active; positive” (Species: MOUSE, Strain/Sex: B6C3F1/MALE, Route: INTRAPERITONEAL, Dose: 0, 0.25, 0.5 UMOL/G BW ONCE (STUDY DURATION: 10-11 MONTHS), Dose: 0, 0.25, 0.5 UMOL/G BW ONCE (STUDY DURATION: 10-11 MONTHS), Tumor Site: Type of Lesion: LIVER: HEPATOMA) and “active; positive” (Species: MOUSE, Strain/Sex: CD-1/FEMALE, Route: DERMAL, Dose: 0, 5 UMOL 1X/WK FOR 3 WK BEGINNING 24 HR POST FIRST TPA DOSE (2.5 UG IN 0.1 ML ACETONE), FOLLOWED BY 2.5 UG TPA IN 0.1 M, Tumor Site: Type of Lesion: SKIN: PAPILLOMA).

As to `CC(C)N=C=NC(C)C`, the carcinogen call was “inactive; negative” (Species: Mouse, Strain/Sex: B6C3F1/Female (50/Group), Route: Dermal, Dose: 0, 10, 20, 40 mg/kg in anhydrous ethanol 5 d/wk for 2 yr, Dose: 0, 10, 20, 40 mg/kg in anhydrous ethanol 5 d/wk for 2 yr); “inactive; negative” (Species: Mouse, Strain/Sex: B6C3F1/Male (50/Group), Route: Dermal, Dose: 0, 10, 20, 40 mg/kg in anhydrous ethanol 5 d/wk for 2 yr, Dose: 0, 10, 20, 40 mg/kg in anhydrous ethanol 5 d/wk for 2 yr); “inactive; negative” (Species: Rat, Strain/Sex: F344/N/Female (50/Group), Route: Dermal, Dose: 0, 10, 20, 40 mg/kg in anhydrous ethanol 5 d/wk for 2 yr, Dose: 0, 10, 20, 40 mg/kg in anhydrous ethanol 5 d/wk for 2 yr); “inactive; negative” (Species: Rat, Strain/Sex: F344/N/Male (50/Group), Route: Dermal, Dose: 0, 10, 20, 40 mg/kg in anhydrous ethanol 5 d/wk for 2 yr, Dose: 0, 10, 20, 40 mg/kg in anhydrous ethanol 5 d/wk for 2 yr).

Regarding `CCOC(=O)CC(SP(=O)(OC)OC)C(=O)OCC` (stereo not given), the carcinogen call was “inactive; negative” (Species: MOUSE, Strain/Sex: B6C3F1/FEMALE, Route: ORAL, Dose: 0, 500, 1000 PPM IN DIET, Dose: 0, 500, 1000 PPM IN DIET); “inactive; negative” (Species: MOUSE, Strain/Sex: B6C3F1/MALE, Route: ORAL, Dose: 0, 500, 1000 PPM IN DIET, Dose: 0, 500, 1000 PPM IN DIET); “inactive; negative” (Species: RAT, Strain/Sex: F344/FEMALE, Route: ORAL, Dose: 0, 500, 1000 PPM IN DIET, Dose: 0, 500, 1000 PPM IN DIET); “inactive; negative” (Species: RAT, Strain/Sex: F344/MALE, Route: ORAL, Dose: 0, 500, 1000 PPM IN DIET, Dose: 0, 500, 1000 PPM IN DIET).

Regarding `C[N+](C)(C)CCCl`, the carcinogen call was “inactive; negative” (Species: MOUSE, Strain/Sex: B6C3F1/FEMALE, Route: ORAL, Dose: 0, 500, 2000 PPM IN DIET, Dose: 0, 500, 2000 PPM IN DIET); “inactive; negative” (Species: MOUSE, Strain/Sex: B6C3F1/MALE, Route: ORAL, Dose: 0, 500, 2000 PPM IN DIET, Dose: 0, 500, 2000 PPM IN DIET); “inactive; negative” (Species: RAT, Strain/Sex: F344/FEMALE, Route: ORAL, Dose: 0, 1500, 3000 PPM IN DIET, Dose: 0, 1500, 3000 PPM IN DIET); “inactive; negative” (Species: RAT, Strain/Sex: F344/MALE, Route: ORAL, Dose: 0, 1500, 3000 PPM IN DIET, Dose: 0, 1500, 3000 PPM IN DIET).

`CC1=C[C@H]2O[C@@H]3[C@H](O)[C@@H](O)[C@](C)([C@@]2(CO)[C@H](O)C1=O)[C@]31CO1`: for the setting “Species: MOUSE, Strain/Sex: C57BL/6CRSLC/FEMALE, Route: ORAL, Dose: 0, 6, 12, 30 PPM IN DIET FOR 104 WK (STUDY DURATION: 104 WK), Dose: 0, 6, 12, 30 PPM IN DIET FOR 104 WK (STUDY DURATION: 104 WK)”, the carcinogen call is “inactive; negative”.

For the compound `O=C(O)CCCc1ccc(N(CCCl)CCCl)cc1`, the carcinogen call runs as follows: (Species: HUMAN, Route: ORAL, Tumor Site: Type of Lesion: HEMATOPOIETIC SYSTEM (LEUKEMIA)) “active; positive”; (Species: MOUSE, Strain/Sex: BALB/FEMALE, Route: INTRAGASTRIC, Dose: 0, 1 MG/KG SUSPENDED IN WATER 5/WK FOR 12 WK (STUDY DURATION: 120 WK), Tumor Site: Type of Lesion: LUNG: ADENOMA) “active; positive”; (Species: MOUSE, Strain/Sex: BALB/FEMALE, Route: INTRAGASTRIC, Dose: 0, 1 MG/KG SUSPENDED IN WATER 5/WK FOR 12 WK (STUDY DURATION: 120 WK), Tumor Site: Type of Lesion: LYMPHORETICULAR SYSTEM: TUMOR) “active; positive”; (Species: MOUSE, Strain/Sex: BALB/FEMALE, Route: INTRAGASTRIC, Dose: 0, 1 MG/KG SUSPENDED IN WATER 5/WK FOR 12 WK (STUDY DURATION: 120 WK), Tumor Site: Type of Lesion: MAMMARY GLAND: ADENOMA OR ADENOCANTHOMA) “active; positive”; (Species: MOUSE, Strain/Sex: BALB/MALE, Route: INTRAGASTRIC, Dose: 0, 1 MG/KG SUSPENDED IN WATER 5/WK FOR 12 WK (STUDY DURATION: 120 WK), Tumor Site: Type of Lesion: LUNG: ADENOMA) “active; positive”; (Species: MOUSE, Strain/Sex: BALB/MALE, Route: INTRAGASTRIC, Dose: 0, 1 MG/KG SUSPENDED IN WATER 5/WK FOR 12 WK (STUDY DURATION: 120 WK), Tumor Site: Type of Lesion: LYMPHORETICULAR SYSTEM: TUMOR) “active; positive”. Further, the carcinogen call (Species: MOUSE, Strain/Sex: STRAIN-A/MALE,FEMALE, Route: INTRAPERITONEAL, Dose: 9.6, 37, 150, 420 MG/KG (TOTAL DOSES) IN 0.5% ACACIA OR 0.01% TRICAPRYLIN SOLN 3/WK FOR 4 WK, Dose: 9.6, 37, 150, 420 MG/KG (TOTAL DOSES) IN 0.5% ACACIA OR 0.01% TRICAPRYLIN SOLN 3/WK FOR 4 WK, Tumor Site: Type of Lesion: LUNG: ADENOMA, ADENOCARCINOMA) was “active; positive”; the carcinogen call (Species: MOUSE, Strain/Sex: SWISS/FEMALE, Route: INTRAPERITONEAL, Dose: 1.5, 3.0 MG/KG 3/WK FOR 6 MO, Tumor Site: Type of Lesion: LUNG: ADENOMA, LYMPHATIC SYSTEM: LYMPHOSARCOMA, OVARIES, Tumor Site: Type of Lesion: LUNG: ADENOMA, LYMPHATIC SYSTEM: LYMPHOSARCOMA, OVARIES) was “active; positive”; the carcinogen call (Species: MOUSE, Strain/Sex: SWISS/MALE, Route: INTRAPERITONEAL, Dose: 1.5, 3.0 MG/KG 3/WK FOR 6 MO, Tumor Site: Type of Lesion: HEMATOPOIETIC SYSTEM (LEUKEMIA), LYMPHATIC SYSTEM: LYMPHOSARCOMA, LUNG: ADENOMA, Tumor Site: Type of Lesion: HEMATOPOIETIC SYSTEM (LEUKEMIA), LYMPHATIC SYSTEM: LYMPHOSARCOMA, LUNG: ADENOMA) is “active; positive”; the carcinogen call (Species: RAT, Strain/Sex: CD-1/MALE, Route: INTRAPERITONEAL, Dose: 2.2, 4.5 MG/KG 3/WK FOR 6 MO, Tumor Site: Type of Lesion: HEMATOPOIETIC SYSTEM (LEUKEMIA), LYMPHATIC SYSTEM: LYMPHOSARCOMA, RETICULAR CELL SARCOMA) was “active; positive”; the carcinogen call (Species: RAT, Strain/Sex: SPRAGUE-DAWLEY/FEMALE, Route: GAVAGE, Dose: 0, 3 MG/KG ADMINISTERED 1, 2, 4.5 OR 9 TIMES PER MO FOR 18 MO TO GIVE MEDIAN TOTAL DOSES OF 54, 108, 234, 425 MG/KG (STU, Dose: 0, 3 MG/KG ADMINISTERED 1, 2, 4.5 OR 9 TIMES PER MO FOR 18 MO TO GIVE MEDIAN TOTAL DOSES OF 54, 108, 234, 425 MG/KG (STU, Tumor Site: Type of Lesion: MAMMARY GLAND: TUMOR, NERVOUS SYSTEM: TUMOR, EAR CANAL: TUMOR, Tumor Site: Type of Lesion: MAMMARY GLAND: TUMOR, NERVOUS SYSTEM: TUMOR, EAR CANAL: TUMOR) was “active; positive”.
